Where two headings read alike, the source gives them in different places.
Experiments:
[1] = target: N-methyl-D-aspartate (NMDA) receptors ([3H]-MK-801 binding); assay: Displacement of [3H]-MK-801 binding, crude synaptosomal membrane fraction (P2) from rat cerebral cortex; conditions: displacement of [3H]-MK-801, rat cerebral cortex membranes
Method: The compounds useful in the novel method of treatment of this invention bind with a high affinity and in a reversible and saturable manner to membranes from rat brain cortex. In addition these useful compounds potently and selectively block responses to NMDA in a brain slice from rate cortex, the antagonism apparently being non-competitive.
Binding of [^3 H]-MK-801 to rat brain in vitro was conducted in a crude synaptosomal membrane fraction (P2) prepared from rat cerebral cortex according to a modified method of Hulme et al, Molecular Pharmocology 14, 737-750 (1978).

responses to quisqualate [2] = assay: Rat cortical slice, responses to quisqualate; format: cell-based; conditions: doses of up to 30 μM
Method: (§1) The effects of MK-801 and its analogs on responses to NMDA and quisqualate were assessed using the rat cortical slice as described by Harrison et al., Brit. J. Pharmacol, 84, 381-391 (1985). Cortical neurons in this preparation are depolarized by bath applications of NMDA. MK-801 produces a dose dependent depression of NMDA responses with a threshold dose of about 100 nM and complete suppression of responses at 1 μM.

responses to kainate = assay: Rat cortical slice, responses to kainate; format: cell-based; conditions: doses of up to 30 μM
[3] = system: NMDA receptor mediated events on central neurons; assay: Cortical slices from rats pretreated with MK-801, responses to NMDA; format: in vivo, rat; conditions: slices from rats pretreated 1 mg/kg i.p. 2 hours before sacrifice, vs untreated animals
Method: (§2) The responses to NMDA and quisqualate were examined on cortical slices from 4 rats which had been pretreated with MK-801 (1 mg/kg, i.p) 2 hours before they were sacrificed. Responses to NMDA were markedly depressed resulting in a shift to the right of the NMDA dose-response curve of approximately 2.4 fold when compared to the mean NMDA dose-response curved from untreated animals.

responses to quisqualate [4] = assay: Cortical slices from rats pretreated with MK-801, responses to quisqualate; format: in vivo, rat; conditions: slices from rats pretreated 1 mg/kg i.p. 2 hours before sacrifice
Method: as §2

[5] = system: gerbils (neuronal degeneration in the hippocampus); assay: Gerbil ischaemia, 10 minute unilateral carotid artery occlusion, neuronal degeneration in hippocampus; format: in vivo; conditions: 10 min occlusion
Method: (§3) (a) Ischaemia was induced in gerbils by 10 or 30 minute unilateral occlusion of the carotid artery. Restoration of blood flow after occlusion was checked visually and the animals were allowed to survive for 4 days. The extent of neuronal degeneration in the hippocampus was assessed. Test animals were treated by administering MK-801 at doses of 1 and 10 mg/kg (i.p.) one hour prior to artery occulsion.

gerbils = assay: Gerbil ischaemia, 30 minute unilateral carotid artery occlusion, survival; format: in vivo; conditions: 30 min occlusion
Method: as §3

[6] = system: gerbils (neuronal damage in the hippocampus); assay: Gerbil right carotid artery occlusion 10 minutes, repeated MK-801 dosing, neuronal damage in hippocampus; format: in vivo; conditions: 1 mg/kg i.p. one hour before, then 1, 3, 5, 10 and 15 hours following 10 min occlusion
Method: (b) The right carotid artery of gerbils was occluded for 10 minutes and MK-801 at a dose of 1 mg/kg (i.p.) administered one hour before, then 1, 3, 5, 10 and 15 hours following occlusion. The animals were allowed to survive for 4 days and the extent of neuronal damage in the hippocampus was assessed.

[7] = system: gerbils (neuronal degeneration in the hippocampus); assay: Gerbil ischaemia, 5 minute occlusion of both carotid arteries, neuronal degeneration in hippocampus; format: in vivo
Method: (c) Ischaemia was induced in gerbils by 5 minute occlusion of both carotid arteries. Restoration of blood flow after occlusion was checked visually and the animals allowed to survive for 4 days. The extent of neuronal degeneration in the hippocampus was measured. Test animals were treated by administering MK-801 at doses of 1, 3 and 10 mg/kg (i.p.) one hour prior to occlusion.

[8] = system: gerbil hippocampus calcium levels; assay: Prevention of increases in calcium levels in gerbil hippocampus following bilateral artery occlusion; format: in vivo
Excerpt: (d) The neuroprotective activity of compounds for use in accordance with the invention has also been determined by measuring the ability of the compounds to prevent increases in calcium levels in the gerbil hippocampus following bilateral artery occlusion.

[9] = system: NMDA responses of cortical neurons (NMDA receptor); assay: Rat cortical slice, responses to NMDA; format: cell-based; conditions: read-out: Apparent Potency as NMDA Antagonist Kb
Method: as §1
The apparent potencies of MK-801 and its analogs are shown in Table IV; they correlate closely with results from [^3 H]-MK-801 binding studies.

[10] = Table I, read-out: Displacement potencies Ki
[11] = Table II, read-out: Displacement potencies Ki

SMILES | Ki [1, 10] | Kb [9] | other results
CC12NC(Cc3ccccc31)c1ccccc12 (single isomer, unassigned) [L-640,689, 5-methyl-10,11-dihydro-5H-dibenzo[a,d]cyclohepten-5,10-imine] | 40 nM | – | effect on responses to quisqualate (responses to quisqualate [2]): totally unaffected; effect on responses to kainate (responses to kainate): totally unaffected; shift to the right of the NMDA dose-response curve [3]: approximately 2.4 fold; effect on responses to quisqualate (responses to quisqualate [4]): much less affected with only the highest dose slightly depressed; Number of animals showing damage ([5]; 1 mg/kg i.p. one hour prior): 4; Number undamaged ([5]; 1 mg/kg i.p. one hour prior): 11; Number of animals showing damage ([5]; 10 mg/kg i.p. one hour prior): 3; Number undamaged ([5]; 10 mg/kg i.p. one hour prior): 12; Number dead (gerbils; 1 mg/kg i.p. one hour prior): 4; Number of animals surviving (gerbils; 1 mg/kg i.p. one hour prior): 11; Number dead (gerbils; 10 mg/kg i.p. one hour prior): 1; Number of animals surviving (gerbils; 10 mg/kg i.p. one hour prior): 14; Number of animals showing damage [6]: 1; Number undamaged [6]: 8; Percentage of animals with full protection ([7]; 1 mg/kg i.p. one hour prior to 5 min bilateral occlusion): 60; Percentage of animals with full protection ([7]; 3 mg/kg i.p. one hour prior to 5 min bilateral occlusion): 80; Percentage of animals with full protection ([7]; 10 mg/kg i.p. one hour prior to 5 min bilateral occlusion): 70; ED50 ([8]; Meriones unguiculatus, read-out: Depression of Hippocampal [Ca^2+] IC50): ~0.1 mg/kg
CC12NC(Cc3ccccc31)c1ccccc12 (single isomer, unassigned) [L-640,690] | 320 nM | 300 nM | –
CN1C2(C)c3ccccc3C1(C)c1ccccc12 [L-627,891] | – | 1130 nM | Ki ([1]; Table III, read-out: Ki): 220 nM
CN1C2c3ccccc3C1(C)c1ccccc12 [L-631,876] | – | – | Ki ([1]; Table III, read-out: Ki): 6930 nM
CN1C2(C)c3ccccc3C1(C)c1cc(C(F)(F)F)ccc12 [L-631,922] | – | – | Ki ([1]; Table III, read-out: Ki): 109000 nM
CC12c3ccccc3C(C)(c3ccccc31)N2C1CC1 [L-632,938] | – | 640 nM | Ki ([1]; Table III, read-out: Ki): 4000 nM
CCCN1C2(C)c3ccccc3C1(C)c1ccccc12 [L-633,170] | – | 300 nM | Ki ([1]; Table III, read-out: Ki): 350 nM
CN1C2(C)c3ccccc3C1(C)c1cc(C#N)ccc12 [L-633,239] | – | – | Ki ([1]; Table III, read-out: Ki): 31300 nM
CCCCN1C2(C)c3ccccc3C1(C)c1ccccc12 [L-633,744] | – | 470 nM | Ki ([1]; Table III, read-out: Ki): 390 nM
CN1C2Cc3ccccc3C1(C)c1ccccc1C2 [L-637,686] | – | 2000 nM | Ki [1, 11]: 1200 nM
CC12NC(Cc3ccccc31)c1ccccc12 [L-637,939] | 560 nM | 90 nM | –
CC12NC(Cc3ccccc31)Cc1ccccc12 [L-638,204] | – | 310 nM | Ki [1, 11]: 140 nM
CN1C2Cc3ccccc3C1(C)c1ccccc12 [L-638,275] | 830 nM | – | –
CN1C2Cc3ccccc3C1c1ccccc12 [L-638,276] | 11900 nM | – | –
C=CCN1C2Cc3ccccc3C1(C)c1ccccc12 [L-639,015] | 3400 nM | 3100 nM | –
CCC12NC(Cc3ccccc31)c1ccccc12 [L-639,057] | 50 nM | 500 nM | –
CCC12NC(Cc3ccccc31)Cc1ccccc12 [L-639,420] | – | 200 nM | Ki [1, 11]: 120 nM

SMILES | Ki [1, 10] | Kb [9] | other results
CC12NC(Cc3ccc(Br)cc31)c1ccccc12 [L-639,441] | 20 nM | 1000 nM | –
CC12NC(Cc3ccccc31)c1ccc(Br)cc12 [L-639,442] | 180 nM | 400 nM | –
Clc1ccc2c(c1)C1NC(Cc3ccccc31)C2 [L-639,450] | – | – | Ki [1, 11]: 150 nM
CCCC12NC(Cc3ccccc31)c1ccccc12 [L-639,470] | 8600 nM | 3000 nM | –
OCCC12NC(Cc3ccccc31)c1ccccc12 [L-639,902] | 260 nM | 200 nM | –
CN1C2(C)Cc3ccccc3C1(C)c1ccccc12 [L-640,688] | 710 nM | 870 nM | –
CC12c3ccccc3CC(c3ccccc31)N2CCO [L-641,042] | 12800 nM | – | –
COc1ccc2c(c1)CC1NC2(C)c2ccccc21 [L-641,074] | 605 nM | – | –
COc1ccc2c(c1)C1Cc3ccccc3C2(C)N1 [L-641,086] | 40 nM | – | –
CC12NC(Cc3ccccc31)c1cc(O)ccc12 [L-641,285] | 50 nM | 100 nM | –
CC12NC(Cc3cc(O)ccc31)c1ccccc12 [L-641,291] | 340 nM | 510 nM | Depression of Hippocampal [Ca^2+] Relative Potency (MK-801 = 1) [8]: 1
CC12NC(Cc3ccc(Cl)cc31)c1ccccc12 [L-641,294] | 10 nM | 50 nM | –
CC12NC(Cc3ccccc31)c1ccc(Cl)cc12 [L-641,368] | 80 nM | 1000 nM | –
CN1C2Cc3ccccc3C1(C)c1ccccc12 [L-645,114] | 509 nM | – | –
CCCN1C2Cc3ccccc3C1(C)c1ccccc12 [L-645,156] | 450 nM | – | –
CC12NC(Cc3ccccc31)c1ccc(O)cc12 [L-665,039] | 20 nM | 130 nM | Depression of Hippocampal [Ca^2+] Relative Potency (MK-801 = 1) [8]: 0.8
